Results on 11 molecules are retold here after patent publication US20260125382A1, “COMPOUNDS FOR INHIBITING OR DEGRADING CDK2 AND/OR CDK9 AND MEDICINAL USE THEREOF” (KOREA RESEARCH INSTITUTE OF CHEMICAL TECHNOLOGY, priority 2022, published 2026).

The target in one test is T1, CDK2 (Homo sapiens, UniProt P24941).
T1 construct: endogenous in cells; host or cells: MDA-MB-231
In words: CDK protein degradation activity (Western blotting), CDK2. The test is classed as cell-based. Particulars: MDA-MB-231 cells, 16 hours, Western blot. The method in brief:
(§1)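 MDA-MB-231 cells treated 16 h with compound at 100 nM, 1 μM or 10 μM, with DMSO as control. Lysates run on SDS-PAGE and immunoblotted for CDK2, CDK9 and tubulin; band levels quantified by densitometry.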

The target in the next test is T2, CDK9 (Homo sapiens, UniProt P50750).
T2 construct: endogenous in cells; host or cells: MDA-MB-231
In words: CDK protein degradation activity (Western blotting), CDK9. The test is classed as cell-based. The following applies: MDA-MB-231 cells, 16 hours, Western blot. The procedure, abridged:
as §1

T2 sequence (P50750 whole entry): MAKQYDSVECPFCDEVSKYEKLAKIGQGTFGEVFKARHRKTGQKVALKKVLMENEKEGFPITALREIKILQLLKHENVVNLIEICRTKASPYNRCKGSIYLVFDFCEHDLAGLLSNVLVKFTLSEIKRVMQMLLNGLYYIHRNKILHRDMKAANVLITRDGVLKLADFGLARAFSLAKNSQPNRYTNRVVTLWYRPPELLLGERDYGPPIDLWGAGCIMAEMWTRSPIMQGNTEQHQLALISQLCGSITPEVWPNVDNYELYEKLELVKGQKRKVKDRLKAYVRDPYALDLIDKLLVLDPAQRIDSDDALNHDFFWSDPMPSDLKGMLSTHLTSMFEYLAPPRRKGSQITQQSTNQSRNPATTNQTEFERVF

Regarding `Cc1cccc(C(=O)NC2CC(n3cnc4c(NC5CCN(CCC6CCN(C(=O)COc7cccc8c7C(=O)N([C@H]7CCC(=O)NC7=O)C8=O)CC6)CC5)ncnc43)C2)n1` (stereo partly drawn) [Compound 32, N-((1s,3s)-3-(6-((1-(2-(1-(2-((2-(2,6-dioxopiperidin-3-yl)-1,3-dioxoisoindolin-4-yl)oxy)acetyl)piperidin-4-yl)ethyl)piperidin-4-yl)amino)-9H-purin-9-yl)cyclobutyl)-6-methylpicolinamide], at CDK2, the “Enzyme degradation CDK2 (% remaining) @ 0.1 μM” value is reported as 60%, the “Enzyme degradation CDK2 (% remaining) @ 1 μM” value was 20% and the “Enzyme degradation CDK2 (% remaining) @ 10 μM” value is reported as 20%. Moreover, on CDK9, the “Enzyme degradation CDK9 (% remaining) @ 0.1 μM” value worked out at 50%, the “Enzyme degradation CDK9 (% remaining) @ 1 μM” value amounted to 0% and the “Enzyme degradation CDK9 (% remaining) @ 10 μM” value was 0%.
As for `O=C1CCC(N2C(=O)c3ccc(N4CCC(C(=O)N5CC(N6CCN(c7ccc(Nc8ncnc9c8ncn9[C@H]8C[C@@H](NC(=O)Cc9ccccc9)C8)cc7)CC6)C5)CC4)cc3C2=O)C(=O)N1` (stereo partly drawn) [Compound 350, N-((1s,3s)-3-(6-((4-(4-(1-(1-(2-(2,6-dioxopiperidin-3-yl)-1,3-dioxoisoindolin-5-yl)piperidin-4-carbonyl)azetidin-3-yl)piperazin-1-yl)phenyl)amino)-9H-purin-9-yl)cyclobutyl)-2-phenylacetamide], at CDK2, the “Enzyme degradation CDK2 (% remaining) @ 0.1 μM” value is reported as 30/30/30%, the “Enzyme degradation CDK2 (% remaining) @ 1 μM” value is 30/30/30% and the “Enzyme degradation CDK2 (% remaining) @ 10 μM” value is reported as 30/30/30%. Moreover, on CDK9, the “Enzyme degradation CDK9 (% remaining) @ 0.1 μM” value is given as 50%, the “Enzyme degradation CDK9 (% remaining) @ 1 μM” value is recorded as 30% and the “Enzyme degradation CDK9 (% remaining) @ 10 μM” value amounted to 30%.
For `O=C1CC[C@H](N2C(=O)c3cccc(N4CCC(CN5CCC(c6ccc(Nc7ncnc8c7ncn8C7CC(NC(=O)Cc8ccccc8)C7)cc6)CC5)CC4)c3C2=O)C(=O)N1` (stereo partly drawn) [Compound 291, N-((1s,3s)-3-(6-((4-(1-((1-(2-(2,6-dioxopiperidin-3-yl)-1,3-dioxoisoindolin-4-yl)piperidin-4-yl)methyl)piperidin-4-yl)phenyl)amino)-9H-purin-9-yl)cyclobutyl)-2-phenylacetamide], on CDK2, the “Enzyme degradation CDK2 (% remaining) @ 0.1 μM” value was 20/20/20%, the “Enzyme degradation CDK2 (% remaining) @ 1 μM” value is 20/20/20% and the “Enzyme degradation CDK2 (% remaining) @ 10 μM” value is listed as 20/20/20%. At CDK9, the “Enzyme degradation CDK9 (% remaining) @ 0.1 μM” value was 20%, the “Enzyme degradation CDK9 (% remaining) @ 1 μM” value came out at 0% and the “Enzyme degradation CDK9 (% remaining) @ 10 μM” value is 0%.
`O=C1CCC(N2C(=O)c3cccc(NCC(=O)N4CCC(CN5CCC(c6ccc(Nc7ncnc8c7ncn8[C@H]7C[C@@H](NC(=O)Cc8ccccc8)C7)cc6)CC5)CC4)c3C2=O)C(=O)N1` (stereo partly drawn) [Compound 288, N-((1s,3s)-3-(6-((4-(1-((1-((2-(2,6-dioxopiperidin-3-yl)-1,3-dioxoisoindolin-4-yl)glycyl)piperidin-4-yl)methyl)piperidin-4-yl)phenyl)amino)-9H-purin-9-yl)cyclobutyl)-2-phenylacetamide]: at CDK2, the “Enzyme degradation CDK2 (% remaining) @ 0.1 μM” value is given as 10%, the “Enzyme degradation CDK2 (% remaining) @ 1 μM” value was found to be 20% and the “Enzyme degradation CDK2 (% remaining) @ 10 μM” value worked out at 20%. For the same molecule, on CDK9, the “Enzyme degradation CDK9 (% remaining) @ 0.1 μM” value was 0/0/0%, the “Enzyme degradation CDK9 (% remaining) @ 1 μM” value is on record as 0/0/0% and the “Enzyme degradation CDK9 (% remaining) @ 10 μM” value is listed as 0/0/0%.
For `O=C1CC[C@H](N2C(=O)c3ccc(N4CC(C(=O)N5CCC(CN6CCC(CCNc7ncnc8c7ncn8[C@H]7C[C@@H](NC(=O)Cc8ccccc8)C7)CC6)CC5)C4)cc3C2=O)C(=O)N1` [Compound 411, N-((1s,3s)-3-(6-((2-(1-((1-(1-(2-(2,6-dioxopiperidin-3-yl)-1,3-dioxoisoindolin-5-yl)azetidin-3-carbonyl)piperidin-4-yl)methyl)piperidin-4-yl)ethyl)amino)-9H-purin-9-yl)cyclobutyl)-2-phenylacetamide], on CDK2, the “Enzyme degradation CDK2 (% remaining) @ 0.1 μM” value is 40/40/40%, the “Enzyme degradation CDK2 (% remaining) @ 1 μM” value is on record as 40/40/40% and the “Enzyme degradation CDK2 (% remaining) @ 10 μM” value was 40/40/40%. Moreover, on CDK9, the “Enzyme degradation CDK9 (% remaining) @ 0.1 μM” value was 10/10/10%, the “Enzyme degradation CDK9 (% remaining) @ 1 μM” value was 10/10/10% and the “Enzyme degradation CDK9 (% remaining) @ 10 μM” value is given as 10/10/10%.
In the case of `O=C1CC[C@H](N2C(=O)c3cccc(NCC(=O)N4CCC(CN5CCN(c6ccc(Nc7ncnc8c7ncn8C7CC(NC(=O)c8cccc(Cl)n8)C7)cc6)CC5)CC4)c3C2=O)C(=O)N1` (stereo partly drawn) [Compound 419, 6-chloro-N-((1s,3s)-3-(6-((4-(4-((1-((2-(2,6-dioxopiperidin-3-yl)-1,3-dioxoisoindolin-4-yl)glycyl)piperidin-4-yl)methyl)piperazin-1-yl)phenyl)amino)-9H-purin-9-yl)cyclobutyl)picolinamide], on CDK2, the “Enzyme degradation CDK2 (% remaining) @ 0.1 μM” value is 10/10/10%, the “Enzyme degradation CDK2 (% remaining) @ 1 μM” value is reported as 10/10/10% and the “Enzyme degradation CDK2 (% remaining) @ 10 μM” value is 10/10/10%. At CDK9, the “Enzyme degradation CDK9 (% remaining) @ 0.1 μM” value is listed as 0/0/0%, the “Enzyme degradation CDK9 (% remaining) @ 1 μM” value was 0/0/0% and the “Enzyme degradation CDK9 (% remaining) @ 10 μM” value is recorded as 0/0/0%.
Regarding `O=C1CC[C@H](N2C(=O)c3ccc(NCC(=O)N4CCC(CN5CCC(c6ccc(Nc7ncnc8c7ncn8C7CC(NC(=O)Cc8ccccc8)C7)cc6)CC5)CC4)cc3C2=O)C(=O)N1` (stereo partly drawn) [Compound 290, N-((1s,3s)-3-(6-((4-(1-((1-((2-(2,6-dioxopiperidin-3-yl)-1,3-dioxoisoindolin-5-yl)glycyl)piperidin-4-yl)methyl)piperidin-4-yl)phenyl)amino)-9H-purin-9-yl)cyclobutyl)-2-phenylacetamide], on CDK2, the “Enzyme degradation CDK2 (% remaining) @ 0.1 μM” value was determined as 20%, the “Enzyme degradation CDK2 (% remaining) @ 1 μM” value was found to be 20% and the “Enzyme degradation CDK2 (% remaining) @ 10 μM” value came out at 30%. At CDK9, the “Enzyme degradation CDK9 (% remaining) @ 0.1 μM” value was found to be 10%, the “Enzyme degradation CDK9 (% remaining) @ 1 μM” value was 0% and the “Enzyme degradation CDK9 (% remaining) @ 10 μM” value came to 0%.
With `Cc1cccc(C(=O)NC2CC(n3cnc4c(Nc5ccc(N6CCN(CCC7CCN(c8cc9c(cc8F)C(=O)N([C@H]8CCC(=O)NC8=O)C9=O)CC7)CC6)cc5)ncnc43)C2)n1` (stereo partly drawn) [Compound 381, N-((1s,3s)-3-(6-((4-(4-(2-(1-(2-(2,6-dioxopiperidin-3-yl)-6-fluoro-1,3-dioxoisoindolin-5-yl)piperidin-4-yl)ethyl)piperazin-1-yl)phenyl)amino)-9H-purin-9-yl)cyclobutyl)-6-methylpicolinamide], at CDK2, the “Enzyme degradation CDK2 (% remaining) @ 0.1 μM” value came out at 30%, the “Enzyme degradation CDK2 (% remaining) @ 1 μM” value was 20% and the “Enzyme degradation CDK2 (% remaining) @ 10 μM” value worked out at 20%. Also, at CDK9, the “Enzyme degradation CDK9 (% remaining) @ 0.1 μM” value is on record as 0/0/0%, the “Enzyme degradation CDK9 (% remaining) @ 1 μM” value is on record as 0/0/0% and the “Enzyme degradation CDK9 (% remaining) @ 10 μM” value is listed as 0/0/0%.
Consider `N#Cc1cccc(C(=O)N[C@H]2C[C@@H](n3cnc4c(Nc5ccc(N6CCN(CC7CCN(C(=O)CNc8cccc9c8C(=O)N(C8CCC(=O)NC8=O)C9=O)CC7)CC6)cc5)ncnc43)C2)n1` (stereo partly drawn) [Compound 420, 6-cyano-N-((1s,3s)-3-(6-((4-(4-((1-((2-(2,6-dioxopiperidin-3-yl)-1,3-dioxoisoindolin-4-yl)glycyl)piperidin-4-yl)methyl)piperazin-1-yl)phenyl)amino)-9H-purin-9-yl)cyclobutyl)picolinamide], for which, at CDK2, the “Enzyme degradation CDK2 (% remaining) @ 0.1 μM” value is 10/10/10%, the “Enzyme degradation CDK2 (% remaining) @ 1 μM” value is given as 10/10/10% and the “Enzyme degradation CDK2 (% remaining) @ 10 μM” value was 10/10/10%. For the same molecule, on CDK9, the “Enzyme degradation CDK9 (% remaining) @ 0.1 μM” value is on record as 0/0/0%, the “Enzyme degradation CDK9 (% remaining) @ 1 μM” value is recorded as 0/0/0% and the “Enzyme degradation CDK9 (% remaining) @ 10 μM” value is on record as 0/0/0%.
As for `O=C1CCC(N2C(=O)C=C(N3CCC(C(=O)NC[C@H]4CC[C@H](CN5CCN(c6ccc(Nc7ncnc8c7ncn8[C@H]7C[C@@H](NC(=O)Cc8ccccc8)C7)cc6)CC5)CC4)CC3)C2=O)C(=O)N1` (stereo partly drawn) [Compound 201, 1-(1-(2,6-dioxopiperidin-3-yl)-2,5-dioxo-2,5-dihydro-1H-pyrrol-3-yl)-N-(((1r,4r)-4-((4-(4-((9-((1s,3s)-3-(2-phenylacetamido)cyclobutyl)-9H-purin-6-yl)amino)phenyl)piperazin-1-yl)methyl)cyclohexyl)methyl)piperidin-4-carboxamide], at CDK2, the “Enzyme degradation CDK2 (% remaining) @ 0.1 μM” value stood at 50%, the “Enzyme degradation CDK2 (% remaining) @ 1 μM” value worked out at 70% and the “Enzyme degradation CDK2 (% remaining) @ 10 μM” value is on record as 50%. For the same molecule, on CDK9, the “Enzyme degradation CDK9 (% remaining) @ 0.1 μM” value came out at 10%, the “Enzyme degradation CDK9 (% remaining) @ 1 μM” value stood at 10% and the “Enzyme degradation CDK9 (% remaining) @ 10 μM” value turned out to be 0%.
Regarding `Cc1cccc(C(=O)NC2CC(n3cnc4c(Nc5ccc(N6CCN(CC7CCN(c8cccc9c8C(=O)N([C@H]8CCC(=O)NC8=O)C9=O)CC7)CC6)cc5)ncnc43)C2)n1` (stereo partly drawn) [Compound 89, N-((1s,3s)-3-(6-((4-(4-((1-(2-(2,6-dioxopiperidin-3-yl)-1,3-dioxoisoindolin-4-yl)piperidin-4-yl)methyl)piperazin-1-yl)phenyl)amino)-9H-purin-9-yl)cyclobutyl)-6-methylpicolinamide], at CDK2, the “Enzyme degradation CDK2 (% remaining) @ 0.1 μM” value amounted to 70%, the “Enzyme degradation CDK2 (% remaining) @ 1 μM” value was 50% and the “Enzyme degradation CDK2 (% remaining) @ 10 μM” value is 90%. In addition, on CDK9, the “Enzyme degradation CDK9 (% remaining) @ 0.1 μM” value was 10%, the “Enzyme degradation CDK9 (% remaining) @ 1 μM” value was determined as 0% and the “Enzyme degradation CDK9 (% remaining) @ 10 μM” value is 0%.
